This is an account of results in US20250221947A1, “METHODS FOR TREATING A CORONAVIRUS INFECTION USING VALPROIC ACID AND DOCOSAHEXAENOIC ACID” (priority 2024, published 2025).

Where “and” joins values, the source holds several entries; their conditions need not be identical. Identical values can stand only once. Entries after “also recorded” stand apart in the source; their conditions may differ. Like-named read-outs stand apart in the source and are kept apart here. Bounds are passed on as bounds.

Series [1] has as its system HCoV-229E. Put plainly: HCoV-229E viral replication inhibition in MRC5 cells (antibody- or oligonucleotide-based dot blot). The settings on record: for inhibition of HCoV-229E viral replication, agent alone: MRC5, MOI 0.1, 48 hours drug, antibody-based assay; for IC50: Human coronavirus 229E; for fold reduction of IC50 for inhibition of viral replication by VPA preincubation: preincubation 24 or 48 hours / at least 24 hours prior to infection. The series is classed as cell-based, human coronavirus HCoV-229E.

Series [2] has as its system SARS-CoV2. Put plainly: Optum dataset case-control analysis: COVID-19 positivity by nucleic acid testing in patients prescribed VPA. In kind it is in vivo. The settings on record: patients prescribed VPA vs not, exact-matched multivariate analysis.
Series [3] deals with COVID-19. Put plainly: Optum retrospective cohort: clinical progression of COVID-19 in patients prescribed or not prescribed VPA. In kind it is in vivo.
A further series has as its target HDAC2 (Chlorocebus sabaeus, UniProt A0A0D9RT33). Put plainly: Direct inhibition of HDAC2 activity in Vero cells. The settings on record: read-out: IC50 of directly inhibiting HDAC2 activity. In kind it is cell-based.
The test system of a further series is p21. Put plainly: p21 induction time course in Vero cells. The series is classed as cell-based. The settings on record: 2.55 mM VPA.
The test system of series [4] is HCoV-229E. Put plainly: Viral RNA as % of total RNA by RNAseq in MRC5 cells infected with HCoV-229E. The settings on record: drug added after 1 hour viral incubation, 48 hours; VPA 0.1 or 0.5 mM, DHA 25 μM. In kind it is cell-based, human coronavirus HCoV-229E.
The subject of the next series is MRC5 cells. Put plainly: VPA time course RNAseq in MRC5 cells, SARS-CoV2 interacting (Gordon) gene set. The series is classed as cell-based, Homo sapiens.
In series [5] the test system is SARS-CoV2. Put plainly: SARS-CoV2 replication in MRC5 cells, viral RNA by qRT-PCR. The series is classed as cell-based. On the technique in general: In qPCR the cycle at which signal appears reflects the starting amount.
Series [6] has as its system COVID-19. The settings on record: therapeutic VPA cohort; serum levels for 442 of 691 patients; cited from earlier work.
In series [7] the test system is COVID-19. The settings on record: 165 VPA-treated patients admitted for COVID-19; cited from earlier work.
The test system of series [8] is SARS-CoV2. The settings on record: dose range of VPA (M range) less than the IC50 of HDAC2 inhibition; cited from earlier work.
The conditions of series [9]: in vivo; cited from earlier work.
For series [10] the following is noted: use in pregnant women; cited from earlier work.
Series [11] in a line: Serum VPA levels in a national data set (LabCorp).
The mark [12] stands for this setting: COVID-19 infected patients exposed to VPA, propensity-matched or multivariate-adjusted model.
The mark [13] stands for this setting: patients on VPA tested by LabCorp, 2021.

Chain of HDAC2 (A0A0D9RT33 1-488): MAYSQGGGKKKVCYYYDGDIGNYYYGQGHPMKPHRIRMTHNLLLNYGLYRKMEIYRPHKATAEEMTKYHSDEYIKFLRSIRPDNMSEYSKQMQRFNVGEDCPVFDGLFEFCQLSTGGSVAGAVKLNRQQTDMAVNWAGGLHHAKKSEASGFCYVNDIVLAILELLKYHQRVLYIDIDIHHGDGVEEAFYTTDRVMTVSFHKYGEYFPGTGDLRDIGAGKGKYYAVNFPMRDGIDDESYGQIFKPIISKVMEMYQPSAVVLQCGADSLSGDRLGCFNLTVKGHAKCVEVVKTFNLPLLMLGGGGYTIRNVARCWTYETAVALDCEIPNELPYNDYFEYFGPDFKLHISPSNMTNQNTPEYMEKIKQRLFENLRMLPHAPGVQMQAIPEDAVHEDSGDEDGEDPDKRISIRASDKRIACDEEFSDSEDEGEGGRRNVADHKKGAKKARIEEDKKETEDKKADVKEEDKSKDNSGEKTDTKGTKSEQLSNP

Regarding `CC/C=C\C/C=C\C/C=C\CCCCCCCC(=O)O` [ALA, alpha-linolenic acid], the “inhibition of HCoV-229E viral replication, agent alone” value (“inhibition … agent alone” below) with HCoV-229E [1] is given as “least impact; also recorded: least inhibition”.

With `CCCCC/C=C\C/C=C\CCCCCCCC(=O)O` [LA, linoleic acid], the “inhibition … agent alone” value in the series with HCoV-229E [1] is recorded as “substantial inhibitory effect; also recorded: significant inhibition of viral replication”.

As for `CC(/C=C/C(=O)NO)=C\[C@@H](C)C(=O)c1ccc(N(C)C)cc1` [Trichostatin A, trichostatin A], in the series with HCoV-229E [1], the “inhibition … agent alone” value is listed as “did not significantly inhibit viral replication”. Besides, the “inhibition of viral replication in combination with DHA” value in the series with HCoV-229E [1] (with 25 μM DHA) is listed as “inhibition across the board; also recorded: augmented at the very highest dose of Trichostatin A tested”.

`CCCC(CCC)C(=O)O` [VPA, valproic acid]: in the series on SARS-CoV2 [2], the “decreased risk of contracting COVID-19 / reduction in COVID-19 positive testing” value worked out at 25%. For the same compound, the “reduction in ER visits” value with COVID-19 [3] (setting [12]) is 12-15%. In addition, the “reduction in ICU admissions” value with COVID-19 [3] (setting [12]) is given as 14-16%. Besides, in the series on COVID-19 [3] (setting [12]), the “reduction in hospital admission” value is on record as 17-45%. In addition, the “reduction in mechanical ventilation” value in the series with COVID-19 [3] (setting [12]) is 33-39%. In the series on COVID-19 [3] (univariate (unadjusted) logistic regression), the “protective effect against emergency room visits” value was “no protective effect against emergency room visits”. For the same compound, the IC50 (usually the concentration that inhibits the measured activity by half) at HDAC2 was at least 2.5 mM; in the series with HCoV-229E [1] (MRC5, HCoV-229E, no preincubation, read-out: IC50 in conventional coronavirus replication assay), around 5000 µM; in the series on HCoV-229E [1] (MRC5, HCoV-229E, no preincubation, read-out: IC50 in conventional coronavirus replication assay, translated), above 720 µg/mL; with HCoV-229E [1] (MRC5, read-out: IC50 for inhibition of viral replication, MRC5 incubated with valproic acid at least 24 hours prior to infection), around 600 µM; in the series on HCoV-229E [1] (MRC5, read-out: IC50 for inhibition of viral replication, corresponding serum level, MRC5 incubated with valproic acid at least 24 hours prior to infection) it was 85 µg/mL. The “time of earliest p21 induction” value in the series on p21 stood at 24 h. Moreover, the “time of maximal p21 induction” value with p21 was determined as 72 h. Also, the “dose required for antiviral activity” value in the series with HCoV-229E [1] (VPA used alone, in vitro testing) is given as above 0.6 mM. In the series on HCoV-229E [1] (combination of DHA and VPA in vitro (FIG. 4B)), the “dose requirement of VPA for antiviral activity in combination with DHA” value was 0.1 mM. The “fold reduction of IC50 for inhibition of viral replication by VPA preincubation” value in the series on HCoV-229E [1] is “more than 3 fold”; with HCoV-229E [1] (listed as valproic acid), around 10 fold. Besides, the “effect on viral replication (viral RNA as % of total RNA)” value in the series on HCoV-229E [4] was “not significantly impacted”. The “expression of viral pathogenicity and replication genes (Gordon gene set)” value with MRC5 cells (MRC5 cells, VPA 24 and 48 hours) is “down-regulated preferentially”. Also, the “time before gene expression profile changes can be detected” value in the series on MRC5 cells (coronavirus permissive cell lines, VPA time course) is on record as “at least 24 hours”. Further, in the series on MRC5 cells (coronavirus permissive cell lines, VPA time course, in some cases), the “time of maximal gene expression profile changes” value lay within 72 to 96 h. Besides, the “reduction by 24 hours preincubation” value with SARS-CoV2 [5] (24 hours preincubation vs none) is “more than 50%”. In addition, the “inhibitory activity against SARS-CoV2” value with SARS-CoV2 [5] (MRC5, MOI 0.1, VPA 0.5 mM, DHA 25 μM) is reported as “substantial inhibitory activity”. In the series with SARS-CoV2 [5] (VPA: additional preincubation up to 5 days, DHA: preincubation), the “effect of (additional) preincubation” value is on record as “did not provide any additional effects”. Besides, the “% viral RNA detected compared to control MRC5 cells without drug” value is reported as “less than 10%” in the series with SARS-CoV2 [5] (preincubation by 24 hours) and 20% in the series on SARS-CoV2 [5] (without preincubation). In the series on COVID-19 [6], the “OR for contracting COVID-19” value is reported as 0.218. Besides, the “clinical course vs matched controls” value in the series with COVID-19 [7] was “shorter duration of symptoms, lower in-hospital respiratory worsening, lower ICU admissions, and fewer pulmonary infiltrates”. Besides, the “mortality vs matched controls” value in the series with COVID-19 [7] is “not statistically different”. In the series with SARS-CoV2 [8], the “inhibition of viral infection” value is recorded as “no measurable inhibition of viral infection”. Besides, in series [9], the “target serum concentrations for seizure disorder” value is 50 to 100 µg/mL. In addition, the “elevation of the risk of certain birth defects” value in [10] is recorded as “roughly three-fold”. For the same compound, the “share of samples testing 79 μg/mL or higher” value in [11] (LabCorp, second quarter of 2021) is given as 25%. Further, the “serum VPA level, mean” value in series [11] (setting [13]) is 56.7 µg/mL and 56.65 µg/mL. Further, the “serum VPA level, median” value in series [11] (setting [13]) is 59.0 µg/mL and 59 µg/mL.

Turning to `C/C=C1\NC(=O)[C@H]2CSSCC/C=C/[C@H](CC(=O)N[C@H](C(C)C)C(=O)N2)OC(=O)[C@H](C(C)C)NC1=O` [depsipeptide], the IC50 in the series on HCoV-229E [1] (MRC5, read-out: IC50 of inhibition of viral replication, with 25 μM DHA) amounted to 0.0001 µM; in the series on HCoV-229E [1] (MRC5, read-out: IC50 of inhibition of viral replication, without DHA), 0.0008 µM. In addition, the “inhibition … agent alone” value with HCoV-229E [1] is “significant inhibition of viral replication”.
